Here are results for 6 compounds from patent US11753413B2, “Substituted pyrrolo[2,1-f][1,2,4]triazine compounds as JAK2 V617F inhibitors” (Incyte Corporation, priority 2020, dated 2023).

In experiment [1] the target is T1, catalytic domain (JH1) of human JAK2 (Homo sapiens, UniProt O60674). Description: JAK2 LanthaScreen JH1 Binding Assay. Also noted: JH1, amino acids 826-1132; FLAG (N); purchased Carna Biosciences 08-445-20N; host or cells: baculovirus expression system. Particulars: read-out: JH1 BIND. How it is done:
Example A. JAK2 LanthaScreen JH1 Binding Assay
JAK2 JH1 binding assay utilizes catalytic domain (JH1, amino acids 826-1132) of human JAK2 expressed as N-terminal FLAG-tagged, biotinylated protein in a baculovirus expression system (Carna Biosciences, Product #08-445-20N). The assay was conducted in black 384-well polystyrene plates in a final reaction volume of 20 μL. JAK2 JH1 (1.5 nM) was incubated with compounds (100 nL serially diluted in DMSO) in the presence of 50 nM fluorescent JAK2-JH1 tracer and 0.5 nM Streptavidin-Tb cryptate (Cisbio Part #610SATLB) in assay buffer (50 mM Tris, pH=7.5, 10 mM MgCl2, 0.01% Brij-35, 0.1% BSA, 1 mM EGTA, 5% Glycerol and 5 mM DTT). Non-specific binding was accessed in the presence of 2 mM ATP. After incubation for 2 hours at 25° C., LanthaScreen signals were read on a PHERAstar FS plate reader (BMG LABTECH). Data was analyzed with IDBS XLfit and GraphPad Prism 5.0 software using a four parameter dose response curve to determine IC50 for each compound.
In general terms: Time-resolved FRET reads energy transfer from a long-lived donor to a nearby acceptor.
Target sequence in this assay (O60674 826-1132): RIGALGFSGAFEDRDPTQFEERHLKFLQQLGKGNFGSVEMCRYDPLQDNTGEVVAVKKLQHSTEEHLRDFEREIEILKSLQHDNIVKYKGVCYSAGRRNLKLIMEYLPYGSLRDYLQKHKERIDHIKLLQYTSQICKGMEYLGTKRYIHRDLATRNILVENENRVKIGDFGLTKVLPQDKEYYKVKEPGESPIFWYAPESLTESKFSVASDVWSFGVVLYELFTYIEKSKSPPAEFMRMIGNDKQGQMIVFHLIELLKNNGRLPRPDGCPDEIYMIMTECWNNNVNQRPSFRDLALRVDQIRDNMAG

Experiment [2] concerns the target T2, pseudo-kinase domain (JH2) of human Wild Type JAK2 (Homo sapiens, UniProt O60674, F794H/W659A/W777A).
T2 construct: JH2, amino-acids 536-812 with 3 surface mutations; His (C); purchased BPS Bioscience 79463; host or cells: baculovirus expression system
The experiment in a line: JAK2 LanthaScreen JH2-WT Binding Assay. Particulars: read-out: JH2 BIND WT. How it is done:
Example B. JAK2 LanthaScreen JH2-WT Binding Assay
(§1) JAK2 JH2-WT binding assay utilizes pseudo-kinase domain (JH2, amino-acids 536-812 with 3 surface mutations W659A, W777A, F794H) of human Wild Type JAK2 expressed as C-terminal His-Avi-tagged, biotinylated protein in a baculovirus expression system (BPS Bioscience, Catalog #79463). The assay was conducted in black 384-well polystyrene plates in a final reaction volume of 20 μL. JAK2 JH2-WT (0.145 nM) was incubated with compounds (100 nL serially diluted in DMSO) in the presence of 50 nM Fluorescent JAK2-JH2 Tracer (MedChem Express Catalog #HY-102055) and 0.25 nM Streptavidin-Tb cryptate (Cisbio Part #610SATLB) in assay buffer (50 mM Tris, pH=7.5, 10 mM MgCl2, 0.01% Brij-35, 0.1% BSA, 1 mM EGTA, 5% Glycerol and 5 mM DTT). Non-specific binding was accessed in the presence of 2 mM ATP. After incubation for 1 hour at 25° C., LanthaScreen signals were read on a PHERAstar FS plate reader (BMG LABTECH). Data was analyzed with IDBS XLfit and GraphPad Prism 5.0 software using a four parameter dose response curve to determine IC50 for each compound.

The target in experiment [3] is T3, pseudo-kinase domain (JH2) of human V617F mutant JAK2 (Homo sapiens, UniProt O60674, F794H/V617F/W659A/W777A).
T3 construct: JH2, amino-acids 536-812 with 3 surface mutations; His (C); purchased BPS Bioscience 79498; host or cells: baculovirus expression system
T3 sequence (O60674 536-812 V617F/W659A/W777A/F794H): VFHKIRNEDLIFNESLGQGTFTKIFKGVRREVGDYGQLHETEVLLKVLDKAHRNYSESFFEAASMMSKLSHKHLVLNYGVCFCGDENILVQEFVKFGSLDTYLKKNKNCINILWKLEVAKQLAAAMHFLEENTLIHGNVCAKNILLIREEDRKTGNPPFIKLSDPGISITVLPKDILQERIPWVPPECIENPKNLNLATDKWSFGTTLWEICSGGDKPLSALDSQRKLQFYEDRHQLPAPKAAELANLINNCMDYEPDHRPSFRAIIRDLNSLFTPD
The experiment in a line: JAK2 LanthaScreen JH2-V617F Binding Assay. Particulars: read-out: JH2 BIND V617F. How it is done:
Example C. JAK2 LanthaScreen JH2-V617F Binding Assay
as §1, with “JH2-V617F” for “JH2-WT”, “V617F mutant” for “Wild Type”, “#79498).” for “#79463).”, “JH2-V617F (0.26” for “JH2-WT (0.145”

The target in experiment [4] is T1, catalytic domain (JH1) of human JAK2. Description: JAK2 HTRF Enzyme Activity Assay. The format is biochemical. Particulars: ATP 30 μM or 1 mM (not given), read-out: ENZ. Also noted: JH1, amino acids 808-1132; His (N); purchased BPS Bioscience 40450; host or cells: baculovirus expression system. The procedure:
Example D. JAK2 HTRF Enzyme Activity Assay
JAK2 enzyme activity assays utilize catalytic domain (JH1, amino acids 808-1132) of human JAK2 expressed as N-terminal His-tagged protein in a baculovirus expression system (BPS Bioscience, Catalog #40450). The assays was conducted in black 384-well polystyrene plates in a final reaction volume of 20 μL. JAK2 (0.015 nM) was incubated with compounds (100 nL serially diluted in DMSO) in the presence of ATP (30 μM or 1 mM) and 500 nM Biotin-labeled EQEDEPEGDYFEWLE (SEQ ID NO.: 1) peptide (BioSource International, custom synthesis) in assay buffer (50 mM Tris, pH=7.5, 10 mM MgC2, 0.01% Brij-35, 0.1% BSA, 1 mM EGTA, 5% Glycerol and 5 mM DTT) for 60 minutes at 25° C. The reactions were stopped by the addition of 10 μL of detection buffer (50 mM Tris, pH 7.8, 0.5 mg/mL BSA, 150 mM NaCl), supplemented with EDTA, LANCE Eu-W1024 anti-phosphotyrosine (PY20), (PerkinElmer, Catalog #AD0067) and Streptavidin SureLight APC (PerkinElmer Catalog #CR130-100), for a final concentration of 15 mM, 1.5 nM and 75 nM, respectively. HTRF signals were read after 30 minutes incubation at room temperature on a PHERAstar FS plate reader (BMG LABTECH). Data was analyzed with IDBS XLfit and GraphPad Prism 5.0 software using a four parameter dose response curve to determine IC50 for each compound.
Target sequence in this assay (O60674 808-1132): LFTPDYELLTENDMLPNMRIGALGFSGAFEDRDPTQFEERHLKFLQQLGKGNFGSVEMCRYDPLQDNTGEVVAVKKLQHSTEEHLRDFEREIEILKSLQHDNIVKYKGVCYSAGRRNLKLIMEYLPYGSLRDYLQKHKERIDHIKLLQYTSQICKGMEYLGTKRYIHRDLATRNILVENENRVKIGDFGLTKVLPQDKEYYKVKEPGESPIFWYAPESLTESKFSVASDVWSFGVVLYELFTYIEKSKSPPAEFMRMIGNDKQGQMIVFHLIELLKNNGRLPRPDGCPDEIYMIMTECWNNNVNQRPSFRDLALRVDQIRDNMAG

T2 sequence (O60674 536-812 W659A/W777A/F794H): as the sequence (O60674 536-812 V617F/W659A/W777A/F794H) above, with F82V counted along it

Consider `CCS(=O)(=O)Nc1ccc(Cn2cc(-c3ccn4nc(NC(=O)C5CC5)nc(Nc5cccc(C(F)(F)F)c5OC)c34)cn2)cc1` [Example 1, N-(5-(1-(4-(Ethylsulfonamido)benzyl)-1H-pyrazol-4-yl)-4-((2-methoxy-3-(trifluoromethyl)phenyl)amino)pyrrolo[2,1-f][1,2,4]triazin-2-yl)cyclopropanecarboxamide], for which the IC50 in experiment [1] was above 10 µM; in experiment [2], at most 0.1 µM; in experiment [3] it was at most 0.1 µM; in experiment [4], above 10 µM.
On to `COc1c(Nc2nc(NC(=O)C3CC3)nn3ccc(-c4cnn(Cc5ccc(NS(=O)(=O)C6CC6)cc5)c4)c23)cccc1C(F)(F)F` [Example 2, N-(5-(1-(4-(Cyclopropanesulfonamido)benzyl)-1H-pyrazol-4-yl)-4-((2-methoxy-3-(trifluoromethyl)phenyl)amino)pyrrolo[2,1-f][1,2,4]triazin-2-yl)cyclopropanecarboxamide], for which the IC50 in experiment [1] was above 10 µM; in experiment [2], at most 0.1 µM; in experiment [3], at most 0.1 µM; in experiment [4], above 10 µM.
With `CCS(=O)(=O)Nc1ccc(Cn2cc(-c3ccn4nc(NC(=O)C5CC5)nc(Nc5cccc(-c6ncn(C)n6)c5OC)c34)cn2)cc1` [Example 3, N-(5-(1-(4-(Ethylsulfonamido)benzyl)-1H-pyrazol-4-yl)-4-((2-methoxy-3-(1-methyl-1H-1,2,4-triazol-3-yl)phenyl)amino)pyrrolo[2,1-f][1,2,4]triazin-2-yl)cyclopropanecarboxamide], the IC50 in experiment [1] was above 10 µM; in experiment [2], at most 0.1 µM; in experiment [3] it was 0.1 to 0.5 µM; in experiment [4], above 10 µM.
Consider `COc1c(Nc2nc(NC(=O)C3CC3)nn3ccc(-c4cnn(Cc5ccc(NS(C)(=O)=O)cc5)c4)c23)cccc1-c1ncn(C)n1` [Example 4, N-(4-((2-Methoxy-3-(1-methyl-1H-1,2,4-triazol-3-yl)phenyl)amino)-5-(1-(4-(methylsulfonamido)benzyl)-1H-pyrazol-4-yl)pyrrolo[2,1-f][1,2,4]triazin-2-yl)cyclopropanecarboxamide], for which the IC50 in experiment [1] is above 10 µM; in experiment [2] it was 0.1 to 0.5 µM; in experiment [3], 0.1 to 0.5 µM; in experiment [4], above 10 µM.
Consider `COc1c(Nc2nc(NC(=O)C3CC3)nn3ccc(-c4cnn(Cc5cccnc5)c4)c23)cccc1C(F)(F)F` [Example 5, N-(4-((2-Methoxy-3-(trifluoromethyl)phenyl)amino)-5-(1-(pyridin-3-ylmethyl)-1H-pyrazol-4-yl)pyrrolo[2,1-f][1,2,4]triazin-2-yl)cyclopropanecarboxamide], for which the IC50 in experiment [1] was above 10 µM; in experiment [2], 1 to 10 µM; in experiment [3], 1 to 10 µM; in experiment [4], above 10 µM.
As to `COc1c(Nc2nc(NC(=O)C3CC3)nn3ccc(-c4cnn(Cc5ccc(C(=O)O)cc5)c4)c23)cccc1C(F)(F)F` [Example 6, 4-((4-(2-(Cyclopropanecarboxamido)-4-((2-methoxy-3-(trifluoromethyl)phenyl)amino)pyrrolo[2,1-f][1,2,4]triazin-5-yl)-1H-pyrazol-1-yl)methyl)benzoic acid], the IC50 in experiment [1] is 1 to 10 µM; in experiment [2], at most 0.1 µM; in experiment [3], at most 0.1 µM; in experiment [4], 1 to 10 µM.
